Measured values as given in US9896418B2, “Aryl ethers and uses thereof” (Peloton Therapeutics, Inc., priority 2013, dated 2018).

Test system: HIF-2α HIS TAG-PASB Domain
Test: HIF-2α Scintillation Proximity Assay (SPA)
Format: binding
Protocol: The percent inhibition was determined and IC50 values were calculated using the Dotmatics system based on the following equation: % inhibition=[(high control−sample)/(high control−low control)]×100.

Compound | IC50
N#Cc1cc(F)cc(Oc2ccc(S(=O)(=O)C(F)(F)F)c3c2[C@@H](N)C[C@H]3O)c1 (relative stereo) [Compound 279, 3-((cis-3-amino-1-hydroxy-7-((trifluoromethyl)sulfonyl)-2,3-dihydro-1H-inden-4-yl)oxy)-5-fluorobenzonitrile] | 5100 nM
CS(=O)(=NC#N)c1ccc(Oc2cncc(C#N)c2)c2c1[C@H](O)C(F)(F)[C@@H]2F (single isomer, unassigned) [Compound 319] | 14 nM
CS(=O)(=NC#N)c1ccc(Oc2cncc(C#N)c2)c2c1[C@H](O)C(F)(F)[C@@H]2F (single isomer, unassigned) [Compound 321] | 32 nM
N#Cc1cc(F)cc(Oc2ccc(S(=N)(=O)CF)c3c2CC(F)(F)[C@H]3O)c1 (single isomer, unassigned) [Example 274] | 94 nM
N#CN=S(=O)(CF)c1ccc(Oc2cc(F)cc(C#N)c2)c2c1[C@H](O)C(F)(F)C2 (single isomer, unassigned) [Example 285] | 71 nM
CS(=O)(=NC#N)c1ccc(Oc2cc(F)cc(C#N)c2)c2c1[C@H](O)C(F)(F)[C@@H]2F (single isomer, unassigned) [Example 316] | < 5 nM
O=S(=O)(c1ccc(Oc2cc(F)cc(F)c2)c2c1[C@H](O)CC2)C(F)F [Compound 2, (R)-7-((Difluoromethyl)sulfonyl)-4-(3,5-difluorophenoxy)-2,3-dihydro-1H-inden-1-ol] | < 5 nM
O=S(=O)(c1ccc(Oc2cncc(Cl)c2)c2c1[C@H](O)CC2)C(F)F [Compound 3, (R)-4-((5-chloropyridin-3-yl)oxy)-7-((difluoromethyl)sulfonyl)-2,3-dihydro-1H-inden-1-ol] | 340 nM
N#Cc1cncc(Oc2ccc(S(=O)(=O)C(F)F)c3c2CC[C@H]3O)c1 [Compound 4, (R)-5-((7-((Difluoromethyl)sulfonyl)-1-hydroxy-2,3-dihydro-1H-inden-4-yl)oxy)nicotinonitrile] | 3300 nM
O=S(=O)(c1ccc(Oc2cncc(F)c2)c2c1[C@H](O)CC2)C(F)F [Compound 5, (R)-7-((difluoromethyl)sulfonyl)-4-((5-fluoropyridin-3-yl)oxy)-2,3-dihydro-1H-inden-1-ol] | 900 nM
O=S(=O)(c1ccc(Oc2cc(F)cc(Cl)c2)c2c1C(O)C(F)(F)C2)C(F)F (stereo not shown) [Compound 8, 4-(3-chloro-5-fluoro-phenoxy)-7-(difluoromethylsulfonyl)-2,2-difluoro-indan-1-ol] | < 5 nM
O=S(=O)(c1ccc(Oc2cc(F)cc(F)c2)c2c1C(O)C(F)(F)C2)C(F)F (stereo not shown) [Compound 9, 7-(difluoromethylsulfonyl)-4-(3,5-difluorophenoxy)-2,2-difluoro-indan-1-ol] | < 5 nM
C=CCC1(O)c2c(S(=O)(=O)C(F)F)ccc(Oc3cc(F)cc(F)c3)c2CC1(F)F (stereo not shown) [Compound 12, 1-allyl-7-(difluoromethylsulfonyl)-4-(3,5-difluorophenoxy)-2,2-difluoro-indan-1-ol] | 9800 nM
CC1(O)c2c(S(=O)(=O)C(F)F)ccc(Oc3cc(F)cc(C#N)c3)c2CC1(F)F (stereo not shown) [Compound 13, 3-[7-(difluoromethylsulfonyl)-2,2-difluoro-1-hydroxy-1-methyl-indan-4-yl]oxy-5-fluoro-benzonitrile] | 6600 nM
N#CCS(=O)(=O)c1ccc(Oc2cc(F)cc(F)c2)c2c1C(O)CC2 (stereo not shown) [Compound 14, 2-[7-(3,5-difluorophenoxy)-3-hydroxy-indan-4-yl]sulfonylacetonitrile] | 5200 nM
O=C1CCc2c(Oc3cc(F)cc(Cl)c3)ccc(S(=O)(=O)C(F)F)c21 [Compound 18, 4-(3-chloro-5-fluorophenoxy)-7-((difluoromethyl)sulfonyl)-2,3-dihydro-1H-inden-1-one] | 120 nM
NC1CCc2c(Oc3cc(F)cc(F)c3)ccc(S(=O)(=O)C(F)F)c21 (stereo not shown) [Compound 19, 7-((difluoromethyl)sulfonyl)-4-(3,5-difluorophenoxy)-2,3-dihydro-1H-inden-1-amine] | 38000 nM
O=S(=O)(c1ccc(Oc2cc(F)cc(F)c2)c2c1CCC2)C(F)F [Compound 20, 4-((Difluoromethyl)sulfonyl)-7-(3,5-difluorophenoxy)-2,3-dihydro-1H-indene] | 1100 nM
O=S(=O)(c1ccc(Oc2cc(F)cc(F)c2)c2c1C=CC2)C(F)F [Compound 21, 4-((Difluoromethyl)sulfonyl)-7-(3,5-difluorophenoxy)-1H-indene] | 140 nM
O=S(=O)(c1ccc(Oc2cc(F)cc(F)c2)c2c1C(CO)CC2)C(F)F (stereo not shown) [Compound 24, (7-((Difluoromethyl)sulfonyl)-4-(3,5-difluorophenoxy)-2,3-dihydro-1H-inden-1-yl)methanol] | 920 nM
N#Cc1c(Oc2cc(F)cc(Cl)c2)ccc(S(=O)(=O)C(F)(F)F)c1Cl [Compound 28, 2-Chloro-6-(3-chloro-5-fluorophenoxy)-3-((trifluoromethyl)sulfonyl)benzonitrile] | 49900 nM
N#Cc1cc(F)cc(Oc2ccc(S(=O)(=O)C(F)(F)F)c(Cl)c2C#N)c1 [Compound 29, 2-Chloro-6-(3-cyano-5-fluorophenoxy)-3-((trifluoromethyl)sulfonyl)benzonitrile] | 22 nM

Compound | IC50
Cc1c(S(=O)(=O)C(F)F)ccc(Oc2cc(F)cc(Cl)c2)c1C#N [Compound 32, 6-(3-Chloro-5-fluorophenoxy)-3-((difluoromethyl)sulfonyl)-2-methylbenzonitrile] | 18 nM
Cc1c(S(=O)(=O)C(F)F)ccc(Oc2cc(F)cc(C#N)c2)c1C#N [Compound 33, 6-(3-Cyano-5-fluorophenoxy)-3-((difluoromethyl)sulfonyl)-2-methylbenzonitrile] | 157 nM
Cc1c(S(=O)(=O)C(F)F)ccc(Oc2cc(F)cc(F)c2)c1C#N [Compound 34, 3-((Difluoromethyl)sulfonyl)-6-(3,5-difluorophenoxy)-2-methylbenzonitrile] | < 5 nM
CN(C)Cc1c(S(=O)(=O)C(F)F)ccc(Oc2cc(F)cc(Cl)c2)c1C#N [Compound 36, 6-(3-Chloro-5-fluorophenoxy)-3-((difluoromethyl)sulfonyl)-2-((dimethylamino)methyl)benzonitrile] | 17000 nM
Cc1c([S+]([O-])C(F)F)ccc(Oc2cc(F)cc(Cl)c2)c1C#N (stereo not shown) [Compound 37, 6-(3-Chloro-5-fluorophenoxy)-3-((difluoromethyl)sulfinyl)-2-methylbenzonitrile] | 6700 nM
O=S(=O)(c1ccc(Oc2cc(F)cc(Cl)c2)c(Cl)c1Cn1ccnc1)C(F)F [Compound 45, 1-(2-Chloro-3-(3-chloro-5-fluorophenoxy)-6-((difluoromethyl)sulfonyl)benzyl)-1H-imidazole] | 6100 nM
O=S(=O)(c1ccc(Oc2cc(F)cc(Cl)c2)c(Cl)c1CNCC(F)(F)F)C(F)F [Compound 47, N-(2-Chloro-3-(3-chloro-5-fluorophenoxy)-6-((difluoromethyl)sulfonyl)benzyl)-2,2,2-trifluoroethan-1-amine] | 9000 nM
O=S(=O)(c1ccc(Oc2cc(F)cc(Cl)c2)c(Cl)c1CNC1CCOCC1)C(F)F [Compound 48, N-(2-Chloro-3-(3-chloro-5-fluorophenoxy)-6-((difluoromethyl)sulfonyl)benzyl)tetrahydro-2H-pyran-4-amine] | 920 nM
O=S(=O)(c1ccc(Oc2cc(F)cc(Cl)c2)c(Cl)c1CNC1CCCOC1)C(F)F (stereo not shown) [Compound 49, N-(2-Chloro-3-(3-chloro-5-fluorophenoxy)-6-((difluoromethyl)sulfonyl)benzyl)tetrahydro-2H-pyran-3-amine] | 13000 nM
Cc1c(S(C)(=O)=O)ccc(Oc2cc(F)cc(C#N)c2)c1C#N [Compound 51, 6-(3-Cyano-5-fluorophenoxy)-2-methyl-3-(methylsulfonyl)benzonitrile] | 2000 nM
Cc1c(S(C)(=O)=O)ccc(Oc2cc(F)cc(F)c2)c1C#N [Compound 52, 6-(3,5-Difluorophenoxy)-2-methyl-3-(methylsulfonyl)benzonitrile] | 46 nM
Cc1c(S(C)(=O)=O)ccc(Oc2cc(F)cc(Cl)c2)c1C(F)F [Compound 53, 1-(3-Chloro-5-fluorophenoxy)-2-(difluoromethyl)-3-methyl-4-(methylsulfonyl)benzene] | 330 nM
N#Cc1ccc(Oc2cc(F)cc(F)c2)c2c1[C@H](O)CC2 [Compound 66, (R)-7-(3,5-Difluorophenoxy)-3-hydroxy-2,3-dihydro-1H-indene-4-carbonitrile] | 5000 nM
CS(=O)(=NC#N)c1ccc(Oc2cc(F)cc(C#N)c2)c2c1C(O)CC2 (stereo not shown) [Compound 68] | 3100 nM
N=S(=O)(c1ccc(Oc2cc(F)cc(Cl)c2)c(Br)c1)C(F)F (stereo not shown) [Compound 69, 2-bromo-1-(3-chloro-5-fluorophenoxy)-4-((difluoromethyl)sulfonimidoyl)benzene] | 1300 nM
CN=S(=O)(c1ccc(Oc2cc(F)cc(Cl)c2)c(Br)c1)C(F)F (stereo not drawn) [Compound 70, N-methyl-2-bromo-1-(3-chloro-5-fluorophenoxy)-4-(S-(difluoromethyl)sulfonimidoyl)benzene] | 770 nM
N=S(=O)(c1ccc(Oc2cc(F)cc(Cl)c2)c(Br)c1)C(F)(F)F (stereo not shown) [Compound 71, 2-bromo-1-(3-chloro-5-fluorophenoxy)-4-((trifluoromethyl)sulfonimidoyl)benzene] | 640 nM
N#Cc1cc(S(=N)(=O)C(F)(F)F)ccc1Oc1cc(F)cc(Cl)c1 (stereo not shown) [Compound 72, 2-(3-chloro-5-fluorophenoxy)-5-((trifluoromethyl)sulfonimidoyl)benzonitrile] | 510 nM
N#Cc1cc(F)cc(Oc2ccc(S(=N)(=O)C(F)(F)F)cc2C#N)c1 (stereo not shown) [Compound 73, 2-(3-cyano-5-fluorophenoxy)-5-((trifluoromethyl)sulfonimidoyl)benzonitrile] | 1400 nM
N=S(=O)(c1ccc(Oc2cc(F)cc(Cl)c2)c(Br)c1Cl)C(F)(F)F (stereo not shown) [Compound 75, (3-bromo-2-chloro-4-(3-chloro-5-fluorophenoxy)phenyl)(imino)(trifluoromethyl)-λ^6-sulfanone] | 240 nM
N#Cc1c(S(=O)(=O)C(F)F)ccc(Oc2cc(F)cc(Cl)c2)c1Br [Compound 76, 2-bromo-3-(3-chloro-5-fluorophenoxy)-6-((difluoromethyl)sulfonyl)benzonitrile] | 880 nM
